Measurements taken from patent US20260174179A1, “ANTI-INFECTIVE SHOE SOLES” (priority 2019, published 2026).

Test system: Pseudomonas aeruginosa (PAO)
Assay: Kirby-Bauer disk diffusion test, agar overlay culture
Type: cell-based
Conditions: 6 mm disk, 24 hours at 37° C.
Experimental: FIG. 13 is a schematic illustrating a Kirby-Bauer Disk Diffusion test. Bacterial cells are plated from a broth culture onto sterile agar petri dishes, and antibiotic soaked paper disks (or control disks without antibiotic) are placed directly on the dish. After 24 or more hours, a confluent layer of bacteria appear to grow up on the dish. Clearing or clear but hazy zones indicate antibiotic sensitivity of the test microbe. The size of the killing zone reflects how well the antibiotic diffuses into the agar and sensitivity of the organism.
FIG. 14A is an image showing the results of a Disk Diffusion test with Pseudomonas aeruginosa (PAO). Three disks were placed on a PAO/agar overlay culture: a penicillin-soaked paper disk, a negative control (no treatment) paper disk, and a sterile punch disk of pure elemental sheet copper, and the culture was incubated for 24 hours. Zones of inhibition are marked as clearing zones (dashed circles) where bacterial growth was stunted. […]
In some studies, a disk-diffusion test was used as a model for testing diffusion and bacterial targeting (FIG. 13). […] The bacteria were allowed to grow on the agar media, and growth was observed using a simple read-out: a zone of clearing around a disk indicated no bacterial growth, and conversely, the lack of a clearing perimeter indicated bacterial resistance. […]

In the case of penicillin, the “clearing extended from the edge of the disk” value is reported as 5-7 mm and the killing zone (FIG. 14A) is reported as 6 mm.
